According to patent US20230381157A1, “RIFABUTIN FOR THE TREATMENT OF ACINETOBACTER BAUMANNII” (University of Southern California, priority 2018, published 2023):

Tests used:
Acinetobacter baumannii = assay: Galleria mellonella infection model; assay type: in vivo
A. baumannii HUMC1 [1] = assay: IC50 dose response, inhibition of bacterial growth (BacTiter-Glo viability); assay type: cell-based, Acinetobacter baumannii; conditions: Acinetobacter baumannii, 11-point dose response
A. baumannii HUMC1 [2] = assay: Time kill assay in RPMI with or without amino acids; assay type: cell-based, Acinetobacter baumannii; conditions: RPMI alone vs RPMI with amino acids; 8 and 24 hrs
[3] = Murine neuropenic lung infection model; assay type: in vivo, mouse
[4] = test system: A. baumannii AB5075 transposon disruption mutants; assay: microbe, parasite or virus in culture; assay type: cell-based, Acinetobacter baumannii

CO[C@H]1/C=C/O[C@@]2(C)Oc3c(C)c(O)c4c(c3C2=O)C2=NC3(CCN(CC(C)C)CC3)NC2=C(NC(=O)/C(C)=C\C=C\[C@H](C)[C@H](O)[C@@H](C)[C@@H](O)[C@@H](C)[C@H](OC(C)=O)[C@@H]1C)C4=O [rifabutin]
protection, multiple doses (Acinetobacter baumannii; G. mellonella infection model): protective at significantly lower doses as compared to RIF | lowest efficacious dose (efficacious at doses as low as) (Acinetobacter baumannii; Galleria mellonella, dose-response): 0.1 mg/kg | IC50 (A. baumannii HUMC1 [1]; HUMC1, 24 h, HUMC1, RPMI + 50% Serum): < 847 pM | IC50 (A. baumannii HUMC1 [1]; HUMC1, HUMC1, RPMI + 50% Serum): < 847 pM | IC50 (A. baumannii HUMC1 [1]; HUMC1, HUMC1, RPMI): 1000 pM | reduction in CFUs (time kill) (A. baumannii HUMC1 [2]): greater reduction in CFUs | efficacy vs RIF [3]: more effective as compared to RIF | Rifabutin MIC ([4]; AB00188, disrupted gene aroP, RPMI, listed as RBT): 0.05 µg/mL | Rifabutin MIC ([4]; AB00190, disrupted gene aroP, RPMI, listed as RBT): 0.05 µg/mL | Rifabutin MIC ([4]; AB00215, disrupted gene tryP, RPMI, listed as RBT): 0.05 µg/mL | Rifabutin MIC ([4]; AB00216, disrupted gene tryP, RPMI, listed as RBT): 0.05 µg/mL | Rifabutin MIC ([4]; AB01188, ABUW_0449 (hypothetical protein), MHII): 1.56 µg/mL | Rifabutin MIC ([4]; AB01188, ABUW_0449 (hypothetical protein), RPMI): 0.05 µg/mL | Rifabutin MIC ([4]; AB01192, ABUW_0449, MHII): 1.56 µg/mL | Rifabutin MIC ([4]; AB01192, ABUW_0449, RPMI): 0.05 µg/mL | Rifabutin MIC ([4]; AB01494, ABUW_0559 (putative phage-related membrane protein), MHII): 3.13 µg/mL | Rifabutin MIC ([4]; AB01494, ABUW_0559 (putative phage-related membrane protein), RPMI): 0.05 µg/mL | Rifabutin MIC ([4]; AB01495, ABUW_0559, MHII): 6.25 µg/mL | Rifabutin MIC ([4]; AB01495, ABUW_0559, RPMI): 0.05 µg/mL | Rifabutin MIC ([4]; AB02034, ABUW_0745 (hypothetical protein), MHII): 0.78 µg/mL | Rifabutin MIC ([4]; AB02034, ABUW_0745 (hypothetical protein), RPMI): 0.05 µg/mL | Rifabutin MIC ([4]; AB02035, ABUW_0745, MHII): 1.56 µg/mL | Rifabutin MIC ([4]; AB02035, ABUW_0745, RPMI): 0.05 µg/mL | Rifabutin MIC ([4]; AB02204, disrupted gene aroP, RPMI, listed as RBT): 0.05 µg/mL | Rifabutin MIC ([4]; AB02205, disrupted gene aroP, RPMI, listed as RBT): 0.05 µg/mL | Rifabutin MIC ([4]; AB02891, ABUW_1069 (NADH dehydrogenase), MHII): 3.13 µg/mL | Rifabutin MIC ([4]; AB02891, ABUW_1069 (NADH dehydrogenase), RPMI): 0.05 µg/mL | Rifabutin MIC ([4]; AB02892, ABUW_1069, MHII): 6.25 µg/mL | Rifabutin MIC ([4]; AB02892, ABUW_1069, RPMI): 0.05 µg/mL | Rifabutin MIC ([4]; AB03015, disrupted gene aroP, RPMI, listed as RBT): 0.05 µg/mL | Rifabutin MIC ([4]; AB03608, disrupted gene hisJ, RPMI, listed as RBT): 0.05 µg/mL | Rifabutin MIC ([4]; AB03612, disrupted gene hisM, RPMI, listed as RBT): 0.05 µg/mL | Rifabutin MIC ([4]; AB03616, disrupted gene hisM, RPMI, listed as RBT): 0.05 µg/mL | Rifabutin MIC ([4]; AB03618, disrupted gene hisM, RPMI, listed as RBT): 0.05 µg/mL | Rifabutin MIC ([4]; AB04576, ABUW_1741 (outer membrane protein assembly factor BamA), MHII): 1.56 µg/mL | Rifabutin MIC ([4]; AB04576, ABUW_1741 (outer membrane protein assembly factor BamA), RPMI): 0.05 µg/mL | Rifabutin MIC ([4]; AB04593, ABUW_1750 (HAD-superfamiy hydrolase), MHII): 3.13 µg/mL | Rifabutin MIC ([4]; AB04593, ABUW_1750 (HAD-superfamiy hydrolase), RPMI): 0.05 µg/mL | Rifabutin MIC ([4]; AB04594, ABUW_1750, MHII): 3.13 µg/mL | Rifabutin MIC ([4]; AB04594, ABUW_1750, RPMI): 0.05 µg/mL | Rifabutin MIC ([4]; AB04749, ABUW_1817 (putative peroxidase(alpha/beta hydrolase)), MHII): 3.13 µg/mL | Rifabutin MIC ([4]; AB04749, ABUW_1817 (putative peroxidase(alpha/beta hydrolase)), RPMI): 0.05 µg/mL | Rifabutin MIC ([4]; AB04750, ABUW_1817, MHII): 3.13 µg/mL | Rifabutin MIC ([4]; AB04750, ABUW_1817, RPMI): 0.05 µg/mL | Rifabutin MIC ([4]; AB5075-UW (parent strain), RPMI, listed as RBT): 0.05 µg/mL | Rifabutin MIC ([4]; AB05089, ABUW_1933 (NADP-dependent fatty aldehyde dehydrogenase), MHII): 1.56 µg/mL | Rifabutin MIC ([4]; AB05089, ABUW_1933 (NADP-dependent fatty aldehyde dehydrogenase), RPMI): 0.05 µg/mL | Rifabutin MIC ([4]; AB05348, ABUW_2057 (alcohol dehydrogenase), MHII): 1.56 µg/mL | Rifabutin MIC ([4]; AB05348, ABUW_2057 (alcohol dehydrogenase), RPMI): 0.05 µg/mL | Rifabutin MIC ([4]; AB05361, ABUW_2062 (phospholipase D family protein), MHII): 1.56 µg/mL | Rifabutin MIC ([4]; AB05361, ABUW_2062 (phospholipase D family protein), RPMI): 0.05 µg/mL | Rifabutin MIC ([4]; AB05362, ABUW_2062, MHII): 1.56 µg/mL | Rifabutin MIC ([4]; AB05362, ABUW_2062, RPMI): 0.05 µg/mL | Rifabutin MIC ([4]; AB05479, ABUW_2100 (LysR family transcriptional regulator), MHII): 3.13 µg/mL | Rifabutin MIC ([4]; AB05479, ABUW_2100 (LysR family transcriptional regulator), RPMI): 0.05 µg/mL | Rifabutin MIC ([4]; AB05480, ABUW_2100, MHII): 1.56 µg/mL | Rifabutin MIC ([4]; AB05480, ABUW_2100, RPMI): 0.05 µg/mL | Rifabutin MIC ([4]; AB05672, ABUW_2165, MHII): 6.25 µg/mL | Rifabutin MIC ([4]; AB05672, ABUW_2165, RPMI): 3.13 µg/mL | Rifabutin MIC ([4]; AB05673, ABUW_2165, MHII): 3.13 µg/mL | Rifabutin MIC ([4]; AB05673, ABUW_2165, RPMI): 3.13 µg/mL | Rifabutin MIC ([4]; AB05674, ABUW_2165, MHII): 3.13 µg/mL | Rifabutin MIC ([4]; AB05674, ABUW_2165, RPMI): 1.56 µg/mL | Rifabutin MIC ([4]; AB05756, ABUW_2194 (acyl-CoA dehydrogenase), MHII): 1.56 µg/mL | Rifabutin MIC ([4]; AB05756, ABUW_2194 (acyl-CoA dehydrogenase), RPMI): 0.05 µg/mL | Rifabutin MIC ([4]; AB05757, ABUW_2194, MHII): 6.25 µg/mL | Rifabutin MIC ([4]; AB05757, ABUW_2194, RPMI): 0.05 µg/mL | Rifabutin MIC ([4]; AB05837, ABUW_2228 (TonB-dependent receptor), MHII): 3.13 µg/mL | Rifabutin MIC ([4]; AB05837, ABUW_2228 (TonB-dependent receptor), RPMI): 0.05 µg/mL | Rifabutin MIC ([4]; AB05838, ABUW_2228, MHII): 3.13 µg/mL | Rifabutin MIC ([4]; AB05838, ABUW_2228, RPMI): 0.05 µg/mL | Rifabutin MIC ([4]; AB06047, ABUW_2307 (biotin synthase), MHII): 0.05 µg/mL | Rifabutin MIC ([4]; AB06047, ABUW_2307 (biotin synthase), RPMI): 0.05 µg/mL | Rifabutin MIC ([4]; AB06049, ABUW_2307, MHII): 0.05 µg/mL | Rifabutin MIC ([4]; AB06049, ABUW_2307, RPMI): 0.05 µg/mL | Rifabutin MIC ([4]; AB06076, ABUW_2318 (cytosine permease), RPMI): 0.05 µg/mL | Rifabutin MIC ([4]; AB06077, ABUW_2318, MHII): 1.56 µg/mL | Rifabutin MIC ([4]; AB06077, ABUW_2318, RPMI): 0.05 µg/mL | Rifabutin MIC ([4]; AB06089, ABUW_2322 (integrase), MHII): 3.13 µg/mL | Rifabutin MIC ([4]; AB06089, ABUW_2322 (integrase), RPMI): 0.05 µg/mL
